# Results taken from US10253002B2, “Compounds and methods of treating infections” (Neoculi Pty Ltd., priority 2013, dated 2019).
# “And” between values parts separate entries of the source, which are not always exact repeats. Equal entries are not always repeated. Where two headings read alike, the source gives them in different places.
# How the values were obtained:
# [1] = system: Staphylococcus pseudintermedius isolates (MSSP and MRSP); assay: MIC (CLSI), Example 6; format: cell-based; settings: for MIC: Staphylococcus pseudintermedius
# Experimental: Anti-staphylococcal compounds were then tested against all 23 isolates and minimum inhibitory concentrations (MIC) were determined according to standard protocols. After the MICs were determined, the minimum bactericidal concentrations were performed to determine if these compounds are bacteriostatic or bacteriocidal.
# Pseudomonas aeruginosa = assay: Broth microdilution MIC, Example 7 (NCL812 and analogues); format: cell-based; settings: for MIC: Pseudomonas aeruginosa
# MRSA = assay: as above; format: cell-based, Staphylococcus aureus; settings: for MIC: Staphylococcus aureus, MRSA
# In short: (§1)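 Values are MICs in μg/ml from broth microdilution per CLSI, with growth scored against a drug-free well.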
# VRE = assay: as above; format: cell-based, Enterococcus spp.; settings: for MIC: Enterococcus, VRE
# In short: as §1
# [2] = 23 Staphylococcus pseudintermedius isolates
structure (smiles),measurement,setting,value
"N=C(N/N=C/c1ccc(Cl)cc1)N/N=C/c1ccc(Cl)cc1 [NCL812, 1,3-bis[(E)-(4-chlorophenyl)methyleneamino]guanidine]",MIC50,[1]; [2],2 µg/mL
same,MIC range,[1]; [2],1 to 4 µg/mL
same,MIC range,[1]; Staphylococcus pseudintermedius isolates,1 to 4 µg/mL
same,MIC,"[1]; 23 Staphylococcus pseudintermedius isolates, read-out: MIC mode",2 µg/mL
same,MIC,"[1]; Staphylococcus pseudintermedius isolates, read-out: MIC mode",2 µg/mL
same,MIC,"[1]; isolate S2P2, read-out: MIC",2 µg/mL
same,MIC,"[1]; isolate S3P3, read-out: MIC",2 µg/mL
same,MIC,"[1]; isolate S4P4, read-out: MIC",1 µg/mL
same,MIC,"[1]; isolate S5P5, read-out: MIC",2 µg/mL
same,MIC,"[1]; isolate S6P6, read-out: MIC",2 µg/mL
same,MIC,"[1]; isolate S7P7, read-out: MIC",2 µg/mL
same,MIC,"[1]; isolate S8P8, read-out: MIC",2 µg/mL
same,MIC,"[1]; isolate S9P9, read-out: MIC",2 µg/mL
same,MIC,"[1]; isolate S10P10, read-out: MIC",2 µg/mL
same,MIC,"[1]; isolate S12P12, read-out: MIC",2 µg/mL
same,MIC,"[1]; isolate S13P13, read-out: MIC",2 µg/mL
same,MIC,"[1]; isolate S14P14, read-out: MIC",2 µg/mL
same,MIC,"[1]; isolate S16P16, read-out: MIC",2 µg/mL
same,MIC,"[1]; isolate S17P17, read-out: MIC",2 µg/mL
same,MIC,"[1]; isolate S21P21, read-out: MIC",2 µg/mL
same,MIC,"[1]; isolate S23P23, read-out: MIC",2 µg/mL
same,"MIC (μg/ml) at 24 hours, P. aeruginosa","Pseudomonas aeruginosa; 24 hours, 1st and 2nd replicate rows",>128 µg/mL
same,MIC,"Pseudomonas aeruginosa; 24 h, read-out: MIC (μg/ml) at 24 hours, P. aeruginosa, 24 hours, 1st and 2nd replicate rows",> 128 µg/mL
same,MIC,"Pseudomonas aeruginosa; P. aeruginosa, 1st, read-out: MIC",> 128 µg/mL
same,MIC,"Pseudomonas aeruginosa; P. aeruginosa, 2nd, read-out: MIC",> 128 µg/mL
same,MIC,Pseudomonas aeruginosa; read-out: MIC,> 128 µg/mL
same,MIC,"MRSA; MRSA 616, Phase I, 1st, read-out: MIC",8 µg/mL
same,MIC,"MRSA; MRSA 718, Phase I, 2nd, read-out: MIC",8 µg/mL
same,MIC,"MRSA; MRSA 747, Phase I, 1st, read-out: MIC",8 µg/mL
same,MIC,"MRSA; bioassay ranking, read-out: MRSA",3 µg/mL
same,"MIC (μg/ml) at 24 hours, MRSA 2","MRSA; isolate MRSA 2, 24 hours, 1st and 2nd replicate rows",2 µg/mL
same,MIC,"VRE; 24 h, read-out: MIC (μg/ml) at 24 hours, VRE 1, isolate VRE 1, 24 hours, 1st and 2nd replicate rows",2 µg/mL
same,MIC,"VRE; 24 h, read-out: MIC (μg/ml) at 24 hours, VRE 2, isolate VRE 2, 24 hours, 1st and 2nd replicate rows",2 µg/mL
same,MIC,"VRE; VRE 002 [H12c], Phase I, 1st, read-out: MIC",4 µg/mL
same,MIC,"VRE; VRE 002 [H12c], Phase I, 2nd, read-out: MIC",4 µg/mL
same,MIC,"VRE; VRE 002 [H12c], Phase II, 1st, read-out: MIC",2 µg/mL
same,MIC,"VRE; VRE 002 [H12c], Phase II, 2nd, read-out: MIC",2 µg/mL
same,MIC,"VRE; VRE 003 [H14t], Phase I, 1st, read-out: MIC",2 µg/mL
same,MIC,"VRE; VRE 003 [H14t], Phase I, 2nd, read-out: MIC",2 µg/mL
same,MIC,"VRE; VRE 003 [H14t], Phase II, 1st, read-out: MIC",2 µg/mL
same,MIC,"VRE; VRE 003 [H14t], Phase II, 2nd, read-out: MIC",2 µg/mL
same,MIC,"VRE; VRE 004 [H16c], Phase I, 1st, read-out: MIC",4 µg/mL
same,MIC,"VRE; VRE 004 [H16c], Phase I, 2nd, read-out: MIC",4 µg/mL
same,MIC,"VRE; VRE 004 [H16c], Phase II, 1st, read-out: MIC",2 µg/mL
same,MIC,"VRE; VRE 004 [H16c], Phase II, 2nd, read-out: MIC",2 µg/mL
same,MIC,"VRE; VRE 005 [H17c], Phase I, 1st, read-out: MIC",2 µg/mL
same,MIC,"VRE; VRE 005 [H17c], Phase I, 2nd, read-out: MIC",2 µg/mL
same,MIC,"VRE; VRE 005 [H17c], Phase II, 1st, read-out: MIC",2 µg/mL
same,MIC,"VRE; VRE 005 [H17c], Phase II, 2nd, read-out: MIC",2 µg/mL
same,MIC,"VRE; VRE 006 [H19t], Phase I, 1st, read-out: MIC",2 µg/mL
same,MIC,"VRE; VRE 006 [H19t], Phase I, 2nd, read-out: MIC",2 µg/mL
same,MIC,"VRE; VRE 006 [H19t], Phase II, 1st, read-out: MIC",2 µg/mL
same,MIC,"VRE; VRE 006 [H19t], Phase II, 2nd, read-out: MIC",2 µg/mL
same,MIC,"VRE; VRE 007 [H23c], Phase I, 1st, read-out: MIC",4 µg/mL
same,MIC,"VRE; VRE 007 [H23c], Phase I, 2nd, read-out: MIC",4 µg/mL
same,MIC,"VRE; VRE 007 [H23c], Phase II, 1st, read-out: MIC",2 µg/mL
same,MIC,"VRE; VRE 007 [H23c], Phase II, 2nd, read-out: MIC",2 µg/mL
same,MIC,"VRE; VRE 008 [H16c(dc)], Phase I, 1st, read-out: MIC",4 µg/mL
same,MIC,"VRE; VRE 008 [H16c(dc)], Phase I, 2nd, read-out: MIC",4 µg/mL
same,MIC,"VRE; VRE 008 [H16c(dc)], Phase II, 1st, read-out: MIC",2 µg/mL
same,MIC,"VRE; VRE 008 [H16c(dc)], Phase II, 2nd, read-out: MIC",2 µg/mL
same,MIC,"VRE; VRE 009 [H25c], Phase I, 1st, read-out: MIC",4 µg/mL
same,MIC,"VRE; VRE 009 [H25c], Phase I, 2nd, read-out: MIC",4 µg/mL
same,MIC,"VRE; VRE 009 [H25c], Phase II, 1st, read-out: MIC",2 µg/mL
same,MIC,"VRE; VRE 009 [H25c], Phase II, 2nd, read-out: MIC",2 µg/mL
same,MIC,"VRE; VRE 010 [H26c(w)], Phase I, 1st, read-out: MIC",4 µg/mL
same,MIC,"VRE; VRE 010 [H26c(w)], Phase I, 2nd, read-out: MIC",4 µg/mL
same,MIC,"VRE; VRE 010 [H26c(w)], Phase II, 1st, read-out: MIC",2 µg/mL
same,MIC,"VRE; VRE 010 [H26c(w)], Phase II, 2nd, read-out: MIC",2 µg/mL
same,MIC,"VRE; VRE 011 [H26c(dc)], Phase I, 1st, read-out: MIC",2 µg/mL
same,MIC,"VRE; VRE 011 [H26c(dc)], Phase I, 2nd, read-out: MIC",4 µg/mL
same,MIC,"VRE; VRE 011 [H26c(dc)], Phase II, 1st, read-out: MIC",2 µg/mL
same,MIC,"VRE; VRE 011 [H26c(dc)], Phase II, 2nd, read-out: MIC",2 µg/mL
same,MIC,"VRE; VRE 012 [H35t], Phase I, 1st, read-out: MIC",2 µg/mL
same,MIC,"VRE; VRE 012 [H35t], Phase I, 2nd, read-out: MIC",2 µg/mL
same,MIC,"VRE; VRE 012 [H35t], Phase II, 1st, read-out: MIC",2 µg/mL
same,MIC,"VRE; VRE 012 [H35t], Phase II, 2nd, read-out: MIC",2 µg/mL
same,MIC,"VRE; VRE 013 [H37c(w)], Phase I, 1st, read-out: MIC",2 µg/mL
same,MIC,"VRE; VRE 013 [H37c(w)], Phase I, 2nd, read-out: MIC",2 µg/mL
same,MIC,"VRE; VRE 013 [H37c(w)], Phase II, 1st, read-out: MIC",2 µg/mL
same,MIC,"VRE; VRE 013 [H37c(w)], Phase II, 2nd, read-out: MIC",2 µg/mL
same,MIC,"VRE; VRE 014 [H37c(g)], Phase I, 1st, read-out: MIC",4 µg/mL
same,MIC,"VRE; VRE 014 [H37c(g)], Phase I, 2nd, read-out: MIC",4 µg/mL
same,MIC,"VRE; VRE 014 [H37c(g)], Phase II, 1st, read-out: MIC",2 µg/mL
same,MIC,"VRE; VRE 014 [H37c(g)], Phase II, 2nd, read-out: MIC",2 µg/mL
same,MIC,"VRE; bioassay ranking, read-out: VRE",1.75 µg/mL
same,"MIC (μg/ml) at 24 hours, VRE 1","VRE; isolate VRE 1, 24 hours, 1st and 2nd replicate rows",2 µg/mL
same,"MIC (μg/ml) at 24 hours, VRE 2","VRE; isolate VRE 2, 24 hours, 1st and 2nd replicate rows",2 µg/mL and 1 µg/mL
